Laboratory results: patent US4730042A, “Compounds 1 or 3-hydroxy-4-benzyl-6-methyl-7-(4-isopropylamino-butoxy)-1,3-dihydro[3,4- C]pyridine and 2-methyl-3-(4-isopropyl-aminobutoxy)-4-(1'-morphilinomethyl)-5-hydroxyme thyl-6-benzyl pyridine, useful for treating cardiac arrhythmias” (priority 1985, dated 1988)

Experiments:
[1] = tested on: aconitine-induced arrhythmia; assay: Antiarrhythmic effect on the aconitine-induced arrhythmia in anesthetized rats; format: in vivo, male Sprague-Dawley rats; conditions: for ED50: Rattus norvegicus, iv, read-out: Antiarrhythmic effect ED 50; for Antiarrhythmic effect, maximum effect / maximum effect compared with barucainid, in words: rat; for Antiarrhythmic effect, maximum effect: i.v., maximum relative increase in the arrhythmogenic aconitine dose; for maximum effect compared with barucainid, in words: versus barucainid
Procedure: The novel compounds have a powerful antiarrhythmic action and are useful for the therapy of cardiac arrhythmias. The pharmacological investigations to determine the antiarryhythmic action were carried out using the antiarrhythmic barucainid as a comparison.
(§1) The test animals used were male Sprague-Dawley rats weighing 180-300 g. Anesthesia was effected with 100 mg/kg of thiobutabarbital, administered intraperitoneally. To induce arrhythmias, aconitine was infused at a dosage rate of 5 μg per kg per min. The test substances were administered intravenously, directly before the beginning of the aconitine infusion. The parameter measured is the amount of aconitine which leads to the first signs of arrhythmias (disappearance of P, ventricular extrasystoles and tachycardia) in the ECG of the animals. In the case of untreated animals, the arrhythmogenic aconitine dose was 16.5±0.34 μg/kg (n=120). The dose which causes a 50% increase was determined from the linear relationship between log dose (mg/kg) of the test substances and the relative increase in the arrhythmogenic aconitine dose (Δ%).
The maximum effect achieved (Δ%) is evaluated as a further criterion of the antiarrhythmic efficacy.

[2] = tested on: ECG (ST depression, disappearance of P, extrasystoles); assay: Toxic changes in the ECG and therapeutic index in the rat; format: in vivo; conditions: i.v., toxic effect in the ECG (occurrence of extrasystoles)
Procedure: as §1
(§2) The dose of test substance which causes toxic changes in the ECG (ST depression, disappearance of P, extrasystoles) was also determined. The quotient of the ECG-toxic dose and the antiarrhythmic ED 50 was evaluated as a measure of the therapeutic index of the novel compounds.

[3] = as above; format: in vivo; conditions: in vivo, iv, quotient of ECG-toxic dose and antiarrhythmic ED 50
Procedure: as §1, §2

With `Cc1nc(Cc2ccccc2)c2c(c1OCCCCNC(C)C)COC2` [Barucainid, reference compound] the ED50 [1] was 1.95 mg/kg, the “Antiarrhythmic effect, maximum effect” value [1] was 105 Δ % and the ECG-toxic dose [2] was 10.0 mg/kg. The selectivity ratio [3] was 5.13.
With `Cc1nc(Cc2ccccc2)c(CO)c(CN2CCOCC2)c1OCCCCNC(C)C.Cl.Cl.Cl` [Example 1, 2-methyl-3-(4-isopropylaminobutoxy)-4-(1'-morpholinomethyl)-5-hydroxymethyl-6-benzylpyridine trihydrochloride] the ED50 [1] was 0.19 mg/kg, the “Antiarrhythmic effect, maximum effect” value [1] was 111 Δ % and the ECG-toxic dose [2] was 2.15 mg/kg. It also gave a selectivity ratio [3] of 11.3.
With `Cc1nc(Cc2ccccc2)c2c(c1OCCCCNC(C)C)C(O)OC2.Cl.Cl` (centres unmarked) [Example 2, 1-hydroxy-4-benzyl-6-methyl-7-(4-isopropylaminobutoxy)-1,3-dihydrofuro[3,4-C]pyridine dihydrochloride] the ED50 [1] was 0.468 mg/kg, the “Antiarrhythmic effect, maximum effect” value [1] was 239 Δ % and the “maximum effect compared with barucainid, in words” value [1] was “superior to barucainid”. For the same compound, the ECG-toxic dose [2] was over 4.64 mg/kg and the selectivity ratio [3] was over 9.9.
For `Cc1nc(Cc2ccccc2)c2c(c1OCCCCNC(C)C)COC2O.Cl.Cl` (centres unmarked) [Example 3, 3-hydroxy-4-benzyl-6-methyl-7-(4-isopropylaminobutoxy)-1,3-dihydrofuro[3,4-C]pyridine dihydrochloride], the ED50 [1] was 0.695 mg/kg, the “Antiarrhythmic effect, maximum effect” value [1] was 276 Δ % and the “maximum effect compared with barucainid, in words” value [1] was “superior to barucainid”. For the same compound, the ECG-toxic dose [2] was 10 mg/kg and the selectivity ratio [3] was 14.4.
In the case of `Cc1nc(Cc2ccc(O)cc2)c2c(c1OCCCCNC(C)C)COC2` [Example 4, 4-(p-hydroxybenzyl)-6-methyl-7-(4-isopropylaminobutoxy)-1,3-dihydrofuro[3,4-C]pyridine], the ED50 [1] is reported as 2.69 mg/kg, the “Antiarrhythmic effect, maximum effect” value [1] is reported as 263 Δ % and the “maximum effect compared with barucainid, in words” value [1] is reported as “superior to barucainid”. For the same compound, the ECG-toxic dose [2] was 46.4 mg/kg and the selectivity ratio [3] was 17.3.
